Consider 32 compounds from patent publication US11827628B2, “Compositions and methods for inhibition of the JAK pathway” (Rigel Pharmaceuticals, Inc., priority 2005, dated 2023).

The subject of one experiment is up-regulation of ICAM-1 (CD54) by IFNγ in A549 lung epithelial cells. Kind of experiment: A549 Epithelial Line Stimulated with IFNγ (ICAM-1 surface expression, FACS). The experiment is classed as cell-based, human. The note with it: A549 cells stimulated with IFNγ, ICAM-1 expression by FACS; read-out: IC50, Example 43. The method in brief: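 ICAM-1 (CD54) flow cytometry on live-gated A549 cells, geometric mean versus dose giving EC50. Cells received IFNγ at 75 ng/mL for 24 h after a 1 h compound pre-treatment spanning 30 μM to 14 nM in medium with 5% FBS and 0.3% DMSO.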
Background: In flow cytometry, cells or beads pass a laser one at a time.
As for `N#CCn1ccc2cc(Nc3nc(Nc4cccc(S(N)(=O)=O)c4)ncc3F)ccc21` [IX-5, N2-(3-Aminosulfonylphenyl)-N4-(1-cyanomethyleneindol-5-yl)-5-fluoro-2,4-pyrimidinediamine], the IC50 (usually the concentration that inhibits the measured activity by half) came to 6.1 µM.
Still for that read-out and setting: the figure for `N#CCn1ccc2cc(Nc3nc(Nc4ccc(S(N)(=O)=O)cc4)ncc3F)ccc21` [IX-6, N2-(4-Aminosulfonylphenyl)-N4-(1-cyanomethyleneindol-5-yl)-5-fluoro-2,4-pyrimidinediamine] is 36.8 µM.
On to `Cc1ccc(Nc2ncc(F)c(Nc3ccc4c(ccn4CC#N)c3)n2)cc1S(N)(=O)=O` [IX-8, N2-(3-Aminosulfonyl-4-methylphenyl)-N4-(1-cyanomethyleneindol-5-yl)-5-fluoro-2,4-pyrimidinediamine], for which the IC50 is 5.24 µM.
Regarding `C#CCOc1ccc(Nc2nc(Nc3ccc(C)c(S(=O)(=O)NC4CCN(C)CC4)c3)ncc2F)cc1` [VI-69, 5-Fluoro-N2-{[4-methyl-3-((1-methylpiperidin-4-yl)aminosulfonyl)]phenyl} N4-[4-(prop-2-ynyloxy)phenyl]-2,4-pyrimidinediamine], the IC50 was found to be 18.7 µM.
Regarding `CCS(=O)(=O)N1CCc2cc(Nc3nc(Nc4cccc(S(N)(=O)=O)c4)ncc3F)ccc2C1` [VII-14, N2-(3-aminosulfonyl)phenyl-N4-[(N-ethylsulfonyl)-1,2,3,4-tetrahydroisoquinolin-6-yl]-5-fluoro-2,4-pyrimidinediamine], the half-maximal inhibitory concentration (IC50) is 9.93 µM.
With `CCS(=O)(=O)N1CCc2cc(Nc3nc(Nc4ccc(C)c(S(N)(=O)=O)c4)ncc3F)ccc2C1` [VII-15, N2-(3-aminosulfonyl-4-methyl)phenyl-N4-[(N-ethylsulfonyl)-1,2,3,4-tetrahydroisoquinolin-6-yl]-5-fluoro-2,4-pyrimidinediamine], the IC50 is 13.1 µM.
With `CNC(=O)N1CCCc2cc(Nc3nc(Nc4ccc(C)c(S(N)(=O)=O)c4)ncc3F)ccc21` [VII-19, N2-(3-Aminosulfonyl-4-methylphenyl)-5-fluoro-N4-[1-(methylaminocarbonyl)-1,2,3,4-tetrahydroquin-6-yl]-2,4-pyrimidinediamine], the IC50 came to 12.5 µM.
Regarding `COCCn1ncc2cc(Nc3nc(Nc4cccc(S(N)(=O)=O)c4)ncc3F)ccc21` [VII-23, N2-(3-Aminosulfonylphenyl)-5-fluoro-N4-[1-(2-methoxyethyl)indazolin-5-yl]-2,4-pyrimidinediamine], the IC50 was found to be 61.3 µM.
Still for that read-out and setting: the figure for `NC1CCOc2ccc(Nc3nc(Nc4cccc(S(N)(=O)=O)c4)ncc3F)cc21` (centres unmarked) [VII-28, N2-(3-Aminosulfonylphenyl)-N4-(chroman-4-amine-6-yl)-5-fluoro-2,4-pyrimidinediamine] is 16.6 µM.
As for `NC1CCOc2ccc(Nc3nc(Nc4ccc(S(N)(=O)=O)cc4)ncc3F)cc21` (centres unmarked) [VII-29, N2-(4-Aminosulfonylphenyl)-N4-(chroman-4-amine-6-yl)-5-fluoro-2,4-pyrimidinediamine], the concentration for half-maximal inhibition (IC50) stood at 30.5 µM.
For `N#CCN1C(=O)CSc2ccc(Nc3nc(Nc4cccc(S(N)(=O)=O)c4)ncc3F)cc21` [VII-36, N2-(3-Aminosulphonylphenyl)-5-fluoro-N4-(3-oxo-4-cyanomethyl-benzo[1,4]thiazin-6-yl)-2,4-pyrimidinediamine], the half-inhibitory concentration (IC50) turned out to be 82.8 µM.
`Cc1ccc(Nc2ncc(F)c(Nc3ccc4c(c3)NC(=O)CS4)n2)cc1S(N)(=O)=O` [VII-45, N2-(3-Aminosulphonyl-4-methyl-phenyl)-5-fluoro-N4-(3-oxo-4H-benzo[1,4]thiazin-6-yl)-2,4-pyrimidinediamine]: the IC50 was determined as 4.03 µM.
In the case of `CN1C(=O)CSc2ccc(Nc3nc(Nc4cccc(S(=O)(=O)N5CCCCC5)c4)ncc3F)cc21` [VII-50, 5-Fluoro-N4-(4-methyl-3-oxo-benz[1,4]thiazin-6-yl)-N2-(3-pipendinosulfonylphenyl)-2,4-pyrimidinediamine], the IC50 worked out at 4.42 µM.
Consider `CS(=O)(=O)N1CCc2cc(Nc3nc(Nc4cccc(S(N)(=O)=O)c4)ncc3F)ccc21` [VII-60, N2-(3-Aminosulfonylphenyl)-5-fluoro-N4-[4-(1-methylsulfonyl)indolin-5-yl]-2,4-pyrimidinediamine], for which the IC50 is 2.6 µM.

The experiment is the same for the next values; noted with them: A549 epithelial line stimulated with IFNγ; ICAM-1 expression by FACS; read-out: IC50, Example 43.
For `CC(Oc1ccc(Nc2nc(Nc3cccc(S(N)(=O)=O)c3)ncc2F)cc1)C(N)=O` (racemic) [Compound I-117, Racemic N4-[4-(1-Aminocarbonyl)ethoxy]phenyl-N2-(3-aminosulfonyl)phenyl-5-fluoro-2,4-pyrimidinediamine], the IC50 is 36.4 µM.
Regarding `Cc1cc(Nc2nc(Nc3ccc(S(N)(=O)=O)cc3)ncc2F)ccc1OC(C)C(N)=O` (racemic) [Compound I-119, Racemic N4-[4-(1-Aminocarbonyl)ethoxy-3-methyl]phenyl-N2-(4-aminosulfonyl)phenyl-5-fluoro-2,4-pyrimidinediamine], the IC50 stood at 9.67 µM.
The same measure, in the same setting: the figure for `Cc1cc(Nc2nc(Nc3cccc(S(N)(=O)=O)c3)ncc2F)ccc1OC(C)C(N)=O` (racemic) [Compound I-120, Racemic N4-[4-(1-Aminocarbonyl)ethoxy-3-methyl]phenyl-N2-(3-aminosulfonyl)phenyl-5-fluoro-2,4-pyrimidinediamine] is 20 µM.
Take `Cc1cc(Nc2nc(Nc3ccc(C)c(S(N)(=O)=O)c3)ncc2F)ccc1OC(C)C(N)=O` (racemic) [Compound I-121, Racemic N4-[4-(1-Aminocarbonyl)ethoxy-3-methyl]phenyl-N2-(3-aminosulfonyl-4-methyl)phenyl-5-fluoro-2,4-pyrimidinediamine]: the half-maximal inhibitory concentration (IC50) was 14.5 µM.
Regarding `Cc1cc(Nc2nc(Nc3cccc(S(N)(=O)=O)c3)ncc2F)cc(C)c1OC(C)C(N)=O` (racemic) [Compound I-123, Racemic N4-[4-(1-Aminocarbonyl)ethoxy-3,5-dimethyl]phenyl-N2-(3-aminosulfonyl)phenyl-5-fluoro-2,4-pyrimidinediamine], the IC50 was 12.8 µM.
On the same count and under the same terms, the figure for `Cc1ccc(Nc2ncc(F)c(Nc3cc(C)c(OC(C)C(N)=O)c(C)c3)n2)cc1S(N)(=O)=O` (racemic) [Compound I-124, Racemic N4-[4-(1-Aminocarbonyl)ethoxy-3,5-dimethyl]phenyl-N2-(3-aminosulfonyl-4-methyl)phenyl-5-fluoro-2,4-pyrimidinediamine] is 10.4 µM.
As for `CN1CCN(c2ccc(Nc3ncc(F)c(Nc4ccc(OCC#N)cc4)n3)cc2S(N)(=O)=O)CC1` [Compound I-9, N2-[3-Aminosulfonyl-4-(4-methylpiperazin-1-yl)phenyl]-5-fluoro-N4-(4-cyanomethyleneoxyphenyl)-2,4-pyrimidinediamine], the IC50 was 15.6 µM.
Still for that read-out and setting: the figure for `CN1CCN(c2ccc(Nc3ncc(F)c(Nc4ccc(OCC#N)c(F)c4)n3)cc2S(N)(=O)=O)CC1` [Compound I-10, N2-[3-Aminosulfonyl-4-(4-methylpiperazine-1-yl)phenyl]-5-fluoro-N4-(4-cyanomethyleneoxy-3-fluorophenyl)-2,4-pyrimidinediamine] is 6.55 µM; for `Cc1ccc(Nc2ncc(F)c(Nc3ccc(OCC#N)c(F)c3)n2)cc1S(N)(=O)=O` [Compound I-11, N2-(3-Aminosulfonyl-4-methylphenyl)-5-fluoro-N4-(4-cyanomethyleneoxy-3-fluorophenyl)-2,4-pyrimidinediamine] it is 17.6 µM; for `N#CCOc1ccc(Nc2nc(Nc3cccc(S(N)(=O)=O)c3)ncc2F)cc1F` [Compound I-12, N2-(3-Aminosulfonylphenyl)-5-fluoro-N4-(4-cyanomethyleneoxy-3-fluorophenyl)-2,4-pyrimidinediamine] it is 3.2 µM.
Take `N#CCOc1ccc(Nc2nc(Nc3cccc(S(N)(=O)=O)c3)ncc2Br)cc1` [Compound I-13, N2-(3-Aminosulfonylphenyl)-5-bromo-N4-(4-cyanomethyleneoxyphenyl)-2,4-pyrimidinediamine]: the IC50 was found to be 1.34 µM.
For the compound `Cc1ccc(Nc2ncc(Br)c(Nc3ccc(OCC#N)cc3)n2)cc1S(N)(=O)=O` [Compound I-14, N2-(3-Aminosulfonyl-4-methylphenyl)-5-bromo-N4-(4-cyanomethyleneoxyphenyl)-2,4-pyrimidinediamine], the IC50 came out at 0.612 µM.
The same measure, in the same setting: with `Cc1ccc(Nc2ncc(F)c(Nc3cc(C)c(OCC(N)=O)c(C)c3)n2)cc1S(N)(=O)=O` [Compound I-96, N4-(4-Aminocarbonylmethoxy-3,5-dimethyl)phenyl-N2-(3-aminosulfonyl-4-methyl)phenyl-5-fluoro-2,4-pyrimidinediamine] the figure was 40.9 µM; with `NS(=O)(=O)c1cccc(Nc2ncc(F)c(Nc3ccc(OCc4cccnc4)cc3)n2)c1` [Compound I-188, N2-(3-Aminosulfonylphenyl)-5-fluoro-N4-[4-(3-pyridinyl)methyleneoxyphenyl]-2,4-pyrimidinediamine], 15.1 µM; with `Cc1ccc(Nc2ncc(F)c(Nc3ccc(OCc4cccnc4)cc3)n2)cc1S(N)(=O)=O` [Compound I-189, N2-(3-Aminosulfonyl-4-methylphenyl)-5-fluoro-N4-[4-(3-pyridinyl)methyleneoxyphenyl]-2,4-pyrimidinediamine], 6.74 µM.
For the compound `CNS(=O)(=O)c1cc(Nc2ncc(F)c(Nc3ccc(OCc4cccnc4)cc3)n2)ccc1C` [Compound I-190, 5-Fluoro-N2-[3-(N-methylaminosulfony)-4-methylphenyl]-5-fluoro-N4-[4-(3-pyridinyl)methyleneoxyphenyl]-2,4-pyrimidinediamine], the IC50 is 9.31 µM.
Consider `Cc1ccc(Nc2ncc(F)c(Nc3ccc(OCc4ccncc4)cc3)n2)cc1S(N)(=O)=O` [Compound I-194, N2-(3-Aminosulfonyl-4-methylphenyl)-5-fluoro-N4-[4-(4-pyridinyl)methyleneoxyphenyl]-2,4-pyrimidinediamine], for which the IC50 stood at 5.03 µM.
Regarding `Cc1ccc(Nc2nc(Nc3ccc(S(N)(=O)=O)cc3)ncc2F)cc1OCC(=O)N1CCOCC1` [Compound I-209, N2-(4-Aminosulfonylphenyl)-5-fluoro-N4-[4-methyl-3-(2-morpholinocarbonylmethyleneoxy)phenyl]-2,4-pyrimidinediamine], the IC50 was determined as 2.97 µM.
